Like-named read-outs stand apart in the source and are kept apart here. Marks after values point to notes of the source that are not given here. Square brackets hold non-standard residues; d marks the D form. Peptide text beside a SMILES is read from it. * marks the point of attachment. Myristoyl = CCCCCCCCCCCCCC(=O)*; dNMeL = CN[C@H](CC(C)C)C(=O)O; TMR = tetramethylrhodamine
Experiments:
C. elegans (N2 strain) = test: Thermotolerance assay, continuous heat stress at 35° C.; type: in vivo; details: N2 worms
Description: The lifespan of wild type C. elegans with and without peptide at a restrictive temperature was measured.
A schematic representation of the thermotolerance assay used is shown (FIG. 11A). 24 hours of 50 μg peptide treatment at 20° C. of a synchronized population of wild type C. elegans was followed by a continuous heat stress at 35° C. Worms were scored every two hours for 24 hours for survival.

[1] = system: C. elegans wild-type (N2 strain); test: Paraquat (PQ)-induced oxidative stress survival; type: in vivo; details: five-day old N2 worms, 50 μg peptide 24 hours, 50 mM PQ
Description: Five-day old N2 worms were pretreated with 50 μg peptide for 24 hours and subjected to 50 mM PQ. The survival of the worms was monitored every hour under a microscope until the end of survival. […] The median survival value (50% survival) in CPPRAMC, CPAMC, and CP-SC (control) peptides corresponds to 9.6 h, 8.9 h and 5.9 h, respectively, as compared to vehicle control (5.5 h) (FIG. 14).

[2] = system: wild-type C. elegans (N2); test: C. elegans N2 lifespan assay at 20° C. with peptide feeding; type: in vivo; details: N2 worms
Description: A schematic of an assay of C. elegans N2 lifespan at 20° C. is shown (FIG. 10A). This involved peptide treatment (50 μg) with E. coli OP50 as a food source. Plates were changed every second day with 50 μg fresh peptide and OP50. Scoring of survival was done every day to the last day of survival. 50 mM FUdR was added in experimental plates between D1 and D5 to prevent progeny production.

[3] = system: HEK293 IL-6 reporter cells; test: IL-6 signaling, STAT3-stimulated SEAP reporter; type: cell-based; details: human recombinant IL-6 and peptides, 1 hr
Description: HEK293 IL-6 reporter cells were treated with human recombinant IL-6 and the peptides for 1 hr. The STAT3-stimulated SEAP activity in the culture supernatant was measured using QUANTI-Blue solution (InvivoGen) (FIG. 19B).

C. elegans (N2) worms = test: Juglone (JG)-induced oxidative stress survival; type: in vivo; details: N2 worms at day 5, 50 μg peptide 24 h, 50 μM JG
Description: N2 worms at day 5 pretreated for 24 h with 50 μg CPAMC or CP-SC (control) and subjected to 50 μM JG. Survival was checked every hour under a microscope until the end of survival. The median survival value in CPAMC and CP-SC (control) peptides corresponds to 7.3 h and 5.9 h, respectively, compared to vehicle control (4.9 h) (FIG. 15).

human red blood cells = test: Melittin-induced hemolysis of human RBC; type: cell-based; details: 2% human RBC, room temperature 30 min, OD 540 nm
Description: Hemolysis of human red blood cells with melittin was measured with varying concentrations of CPAMC (FIG. 3). To 0.3 mL of 2% human RBC (red blood cell) suspension was added 2 μM melittin and/or peptides taken in 0.7 mL of PBS. The tubes were incubated at room temperature for 30 min, centrifuged, and the OD of the supernatant was measured at 540 nm. PBS and PBS containing 0.1% TritonX-100 served as negative and positive control, respectively.
The protective effect of Myr-CPAMC peptide of human red blood cells (RBC) from melittin-induced hemolysis was also examined. To 0.3 mL of 2% human RBC suspension was added to melittin and/or peptide taken in 0.7 mL of PBS. The tubes were incubated at room temperature for 30 min, centrifuged (FIG. 5A) and the OD of the supernatant was measured at 540 nm. PBS and PBS containing 0.1% TritonX-100 served as negative and positive control, respectively.

[4] = system: human primary lens epithelial (HLE-1°) cells; test: Melittin cytotoxicity, cell viability imaging; type: cell-based; details: 1 μM melittin, 45 min
Description: The ability of CPAMC peptide to block the cytotoxic action of melittin on human primary lens epithelial (HLE-1°) cells was investigated. Cell viability imaging was performed with dead cells identified by fluorescent staining. HLE-1° cells cultured on a 96-well plate were treated with 1 μM melittin and/or different concentrations of CPAMC peptide for 45 min. At the end of the incubation, cell viability imaging was done using the EarlyTox cell integrity kit (Molecular Devices, Sunnyvale, Calif.) (FIG. 4A). The percentage of dead cells in each sample was calculated from the live/dead cell imaging data using the Softmax Pro software (FIG. 4B).

CL4176 C. elegans = test: CL4176 Aβ-induced paralysis and survival assay; type: in vivo; details: CL4176 worms
Description: CL4176 C. elegans is a temperature sensitive strain. Worms are maintained at 15° C. and shifted to increased temperature to cause Aβ-induced paralysis in adults. This has been used as a C. elegans model of Alzheimer's disease.
A scheme of a paralysis assay with CL4176 worms is shown (FIG. 13A). Peptide treatment began on CL4176 embryos and continued throughout the experiment. After 2 days at 15° C., the temperature was increased to the restrictive temperature of 25° C. Worms were scored for survival and paralysis.
Example images of paralyzed and non-paralyzed worms are shown (FIG. 13C).

CL2006 C. elegans = test: CL2006 lifespan at 20° C. (paralysis and death model); type: in vivo; details: CL2006 worms, 50 μg peptide
Description: CL2006 C. elegans were used as a paralysis and death model. Worms are maintained at 15° C., with adult onset paralysis induced at 20° C.
50 μg CPAMC and CPPRAMC peptide or controls were added to CL2006 worms, and the fraction left alive over time at the restrictive temperature of 20° C. was quantified (FIG. 12). […] (FIG. 12).

ARPE-19 cells [5] = test: Sodium iodate-induced oxidative stress, DCFH-DA staining; type: cell-based; details: 7.5 mM sodium iodate, 24 hrs
Description: The ability of CPPRAMC and CPAMC to suppress sodium iodate-induced oxidative stress in ARPE-19 cells was also assessed. ARPE-19 cells seeded on a 96-well plate were treated with 7.5 mM of sodium iodate and peptides in 100 μl of serum-free DMEM/F12 media for 24 hrs. The cells were then stained with 10 μM DCFH-DA for 30 min at 37° C. in the dark and the cells were observed under the EVOS FL Auto2 imaging system (Thermo Fisher Scientific, Waltham, Mass., USA) with 10× magnification.

ARPE-19 cells [6] = test: Sodium iodate cytotoxicity, cell viability imaging; type: cell-based; details: 7.5 mM sodium iodate, 24 hours
Description: Sodium iodate is a chemical that induces oxidative stress and cell death. The ability of CPPRAMC peptide to block the cytotoxic action of sodium iodate was investigated. ARPE-19 cells cultured on a 96-well plate were treated with 7.5 mM sodium iodate and/or CPPRAMC peptide for 24 hours. At the end of the incubation, cell viability imaging was done using the EarlyTox cell integrity kit (Molecular Devices, Sunnyvale, Calif.) (FIG. 6A). The percentage of dead cells in each sample was calculated from the live/dead cell imaging data using the Softmax Pro software (FIG. 6B).
The ability of Myr-CPAMC peptide to block the cytotoxic action of sodium iodate was also investigated. Authenticated ARPE-19 cells cultured on a 96-well plate were treated with 7.5 mM sodium iodate and/or Myr-CPAMC peptide for 24 hours. At the end of the incubation, cell viability imaging was done using the EarlyTox cell integrity kit (Molecular Devices, Sunnyvale, Calif.) (FIG. 7A). The percentage of dead cells in each sample was calculated from the live/dead cell imaging data using the Softmax Pro software (FIG. 7B).

ARPE-19 cells [7] = test: Peptide toxicity to cells, cell viability imaging; type: cell-based; details: increasing peptide concentrations
Description: Cell viability imaging was performed on cells with increasing concentrations of Myr-CPAMC, with fluorescent staining used to indicate dead cells (FIG. 9A).

Proteinase K = Proteinase K (Parengyodontium album, UniProt P06873); test: Proteinase K incubation, HPLC profiles; type: in vitro ADME; details: 100 μg peptide, 10 μg Proteinase K, overnight
Sequence of Proteinase K (P06873 106-384, species assumed): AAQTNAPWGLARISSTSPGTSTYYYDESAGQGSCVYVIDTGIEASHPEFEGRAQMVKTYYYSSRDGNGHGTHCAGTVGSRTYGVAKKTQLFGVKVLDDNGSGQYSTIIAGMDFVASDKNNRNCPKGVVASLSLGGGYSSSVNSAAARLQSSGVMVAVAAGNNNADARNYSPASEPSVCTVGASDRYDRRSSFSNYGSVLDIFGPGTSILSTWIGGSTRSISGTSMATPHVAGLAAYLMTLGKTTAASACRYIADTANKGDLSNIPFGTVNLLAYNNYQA

[8] = system: ARPE-19 cells, hiPSC-NSC cultures, and NSC-derived neurons; test: Peptide entry into cells (fluorescent label); details: fluorescently labeled peptide
[9] = system: ARPE-19 cells, hiPSC-NSC cultures, and NSC-derived neurons

## CH3-LFVIFLVHFSPGRDEDKDEK-NH2 (Me-LFVIFLVHFSPGRDEDKDEK-NH2) [CPAMC, Cell-penetrable, amphiphilic mini chaperone synthesized with L-amino acids]
C. elegans (N2 strain); 35° C., 50 μg peptide, vs control
  % increase in survival: 31* %
C. elegans (N2 strain); 24 hours 50 μg peptide at 20° C., then 35° C.
  Median survival ± SE (hours at 35° C.): 11.0 ± 0.4 h
[1]
  median survival value (50% survival): 8.9 h
[2]; 50 μg peptide with E. coli OP50
  Median Lifespan (Days ± SE): 18.23 ± 0.25 days
[2]; 50 μg peptide, vs control
  Increase in median survival (%): 36* %
[3]
  IL-6 signaling (STAT3-stimulated SEAP activity): IL-6 signaling is also suppressed
C. elegans (N2) worms
  median survival value: 7.3 h
Human red blood cells
  hemolysis by melittin in presence of peptide: Hemolysis decreased as concentration of CPAMC increased
[4]
  percentage of dead cells with melittin and peptide: blocks the cytotoxic action of melittin
CL4176 C. elegans; 25° C.
  delay of Aβ-induced paralysis: delay of CL4176 worm paralysis compared to controls
CL4176 C. elegans; 25° C., vs control
  % increase in median survival: 12%
CL4176 C. elegans; 2 days at 15° C., then 25° C.
  Median survival Hours ± SE: 49.6 ± 0.5 h
CL2006 C. elegans
  Median survival ± SE (days at 20° C.): 7.7 ± 0.28 days
CL2006 C. elegans; vs control
  % increase in survival: 11.6%
ARPE-19 cells [5]
  oxidative stress by DCFH-DA staining: reduce or block the oxidative stress induced by sodium iodate

## CCCCCCCCCCCCCC(=O)N[C@@H](CCCCN)C(=O)N[C@@H](CC(C)C)C(=O)N[C@@H](Cc1ccccc1)C(=O)N[C@H](C(=O)N[C@H](C(=O)N[C@@H](Cc1ccccc1)C(=O)N[C@@H](CC(C)C)C(=O)N[C@H](C(=O)N[C@@H](Cc1c[nH]cn1)C(=O)N[C@@H](Cc1ccccc1)C(=O)N[C@@H](CO)C(=O)N1CCC[C@H]1C(=O)NCC(=O)N[C@@H](CCCNC(=N)N)C(=O)N[C@@H](CC(=O)O)C(=O)N[C@@H](CCC(=O)O)C(=O)N[C@@H](CC(=O)O)C(=O)N[C@@H](CCCCN)C(=O)N[C@@H](CC(=O)O)C(=O)N[C@@H](CCC(=O)O)C(=O)N[C@@H](CCCCN)C(N)=O)C(C)C)[C@@H](C)CC)C(C)C [Myr-CPAMC] (Myristoyl-KLFVIFLVHFSPGRDEDKDEK-NH2)
ARPE-19 cells [6]
  percentage of dead cells with sodium iodate and peptide: protects ARPE-19 cells from sodium iodate-induced cytotoxicity
Human red blood cells
  hemolysis by melittin in presence of peptide: protects human red blood cells (RBC) from melittin-induced hemolysis
ARPE-19 cells [7]
  toxicity of peptide to cells: non-toxic to cells

## CC[C@@H](C)[C@@H](NC(=O)[C@H](NC(=O)[C@@H](Cc1ccccc1)NC(=O)[C@@H](CC(C)C)NC)C(C)C)C(=O)N[C@H](Cc1ccccc1)C(=O)N[C@H](CC(C)C)C(=O)N[C@@H](C(=O)N[C@H](Cc1c[nH]cn1)C(=O)N[C@H](Cc1ccccc1)C(=O)N[C@H](CO)C(=O)N1CCC[C@@H]1C(=O)NCC(=O)N[C@H](CCCNC(=N)N)C(=O)N[C@H](CC(=O)O)C(=O)N[C@H](CCC(=O)O)C(=O)N[C@H](CC(=O)O)C(=O)N[C@H](CCCCN)C(=O)N[C@H](CC(=O)O)C(=O)N[C@H](CCC(=O)O)C(=O)N[C@H](CCCCN)C(N)=O)C(C)C [CPPRAMC, CH3-lfviflvhfspgrdedkdek-NH2] (H-[dNMeL][dF][dV][dI][dF][dL][dV][dH][dF][dS][dP]G[dR][dD][dE][dD][dK][dD][dE][dK]-NH2; N-terminus and C-terminus assumed)
Proteinase K
  resistance to proteolytic cleavage: resistant to proteolytic cleavage
[8]
  entry of peptide into cells: readily penetrates neural cells

## Myristoyl-{K(TMR)}LFVIFLVHFSPGRDEDKDEK-NH2 (Myristoyl-K(TMR)LFVIFLVHFSPGRDEDKDEK-NH2) [Myr-(TMR)-CPAMC, Lipid-conjugated, TMR-labeled peptide]
[9]
  entry of peptide into cells: can enter into ARPE-19 cells at different concentrations
ARPE-19 cells [7]
  toxicity of peptide to cells: not toxic to cells

— patent US11911436B2, “Amphiphilic peptide chaperones and methods of use” (priority 2021, dated 2024)
